Columns and labels:
Quizartinib + AZD7762 = compound: CC(C)(C)c1cc(NC(=O)Nc2ccc(-c3cn4c(n3)sc3cc(OCCN5CCOCC5)ccc34)cc2)no1 [Quizartinib] + NC(=O)Nc1cc(-c2cccc(F)c2)sc1C(=O)N[C@H]1CCCNC1 [AZD7762] (partner 0.2 µM); assay: relative viability (nuclei count vs DMSO), 5 days (fraction); higher = more cells survive
Outline: (§1)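 Lung cancer cell lines in 1536-well plates were dosed by pin tool the day after seeding, either with one drug alone or with a fixed anchor-drug dose plus five library-drug doses (not always all listed) in √10 steps. After 5 days, cells were fixed and their nuclei stained in one step (final 0.05% Triton X-100, 1% formaldehyde, 1 ug/ml Hoechst), then counted on 4× images. Relative viability is the nuclei count in treated wells divided by that in vehicle wells. Values are medians of duplicate plates.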

Quizartinib + Vorinostat = compound: CC(C)(C)c1cc(NC(=O)Nc2ccc(-c3cn4c(n3)sc3cc(OCCN5CCOCC5)ccc34)cc2)no1 [Quizartinib] + O=C(CCCCCCC(=O)Nc1ccccc1)NO [Vorinostat] (partner 1 µM); assay: as above
Outline: as §1

| Cell Line | relative viability (Quizartinib + AZD7762; first compound 0.001 µM) | relative viability (Quizartinib + AZD7762; first compound 0.003162 µM) | relative viability (Quizartinib + AZD7762; first compound 0.01 µM) | relative viability (Quizartinib + AZD7762; first compound 0.03162 µM) | relative viability (Quizartinib + AZD7762; first compound 0.1 µM) | relative viability (Quizartinib + Vorinostat; first compound 0.001 µM) | relative viability (Quizartinib + Vorinostat; first compound 0.003162 µM) | relative viability (Quizartinib + Vorinostat; first compound 0.01 µM) | relative viability (Quizartinib + Vorinostat; first compound 0.03162 µM) | relative viability (Quizartinib + Vorinostat; first compound 0.1 µM) |
| --- | --- | --- | --- | --- | --- | --- | --- | --- | --- | --- |
| NCI-H1993 | 0.759 | 0.699 | 0.87 | 0.672 | 0.914 | 0.68 | 0.76 | 0.939 | 0.726 | 0.725 |
| NCI-H2009 |  |  |  |  |  | 0.673 | 0.697 | 0.652 | 0.696 | 0.761 |
| NCI-H2023 |  |  |  |  |  | 0.61 | 0.493 | 0.762 |  | 0.772 |
| NCI-H2085 | 0.861 | 0.9 | 1.04 | 0.87 | 0.596 | 0.694 | 0.784 | 0.791 | 0.796 | 0.733 |
| NCI-H2087 | 1.13 | 1.15 | 1.26 | 1.38 | 1.3 | 0.751 | 0.705 | 0.676 | 0.384 | 0.73 |
| NCI-H2126 | 1.03 | 0.923 | 0.982 | 0.954 | 1.01 | 0.621 | 0.789 | 0.711 | 0.816 | 0.841 |
| NCI-H2170 | 0.906 | 0.848 | 0.914 | 0.973 | 1.03 | 0.745 | 0.803 | 0.808 | 0.89 | 0.867 |
| NCI-H2228 |  |  |  |  |  | 0.51 | 0.565 | 0.844 | 0.535 | 0.629 |
| NCI-H2342 | 0.505 | 0.637 | 0.471 | 0.544 | 0.518 | 0.804 | 0.717 | 0.669 | 0.69 | 0.617 |
| NCI-H2347 | 0.728 | 0.696 | 0.799 | 0.768 | 0.749 | 0.544 | 0.647 | 0.715 | 0.522 | 0.603 |
| NCI-H2405 | 0.919 | 0.741 | 0.789 | 0.745 | 0.797 | 0.943 | 0.967 | 0.763 | 0.902 | 1.17 |
| NCI-H3122 | 0.964 | 1.02 | 0.971 | 1.02 | 0.962 | 0.89 | 0.799 | 0.915 | 1 | 0.994 |
| PC-3 [JPC-3] | 0.545 | 0.811 | 0.781 | 0.75 | 0.766 | 0.758 | 0.889 | 0.55 | 0.596 | 0.912 |
| PC-14 | 0.31 | 0.417 | 0.327 | 0.22 | 0.457 | 0.707 | 0.693 | 0.858 |  | 0.858 |
| RERF-LC-KJ | 0.898 | 0.954 | 0.945 | 0.98 | 0.987 | 0.58 | 0.707 | 0.751 | 0.53 | 0.691 |
| SK-LU-1 |  |  |  |  |  | 0.766 | 0.716 | 0.896 | 0.835 | 0.892 |
| SK-MES-1 |  |  |  |  |  | 1.01 | 1 | 1.2 | 0.586 | 1.03 |
| SW 900 | 0.711 | 0.498 | 0.597 | 0.532 | 0.58 | 0.402 | 0.561 | 0.373 | 0.608 | 0.583 |
| SW 1573 |  |  |  |  |  | 0.556 | 0.715 | 0.684 |  | 1.27 |
| UMC-11 |  |  |  |  |  | 0.376 | 0.333 | 0.336 | 0.338 | 0.358 |
